Data reported in patent US10869493B2, “Reduced-sweetener products, flavoring mixtures for said reduced-sweetener products and process for the production of products of this type” (SYMRISE AG, priority 2009, dated 2020).

Experiments:
panelists = assay: Determination of the sucrose equivalence using a comparative series of sucrose concentrations in water; format: in vivo, human; details: concentration used in preparation C (1 ppm), method of Application example 1, first part
Text: The sucrose equivalence ratio of the sucrose equivalence of the concentration of the substances or substance of group (i) to the sucrose equivalence of the concentration of the substance or substances of group (ii) in the corresponding flavoring mixture (and in other mixtures, cf. further below), is established as follows: • 1. A comparative series of different sucrose concentrations in water is produced. Preferred concentrations are 0; 0.25; 0.5; 0.75; 1; 1.5; 2; 3; 4 and 5% by weight sucrose in water. Other concentrations, in particular higher concentrations, can optionally also be used for the comparative series. • 2. […] The determined sucrose equivalence is produced from the average of individual gradings by the individual panelists. • 6. The dilution ratio is then determined, using which solution 1 can be set at a sucrose equivalence of 2% by weight sucrose in water. […] It is of course sensible to have the determined dilution ratio tested once more by the panelists. • 7. Solution 2 (containing the compound(s) of group (ii)) is then diluted in the dilution ratio determined under 6. • 8. Subsequently, the dilute solution 2 is also tasted and compared to the sucrose test series, graded by the panelists and a corresponding sucrose equivalence value is determined (analogously to points 4. and 5.). • 9. […]

[1] = Stability of phyllodulcin content under elevated thermal stress (HPLC, UV detection); format: physicochemical; details: 100 mg/l phyllodulcin in aqueous phosphate buffer pH 9, stored at 40° C., compared to the same quantity as extract
Method: The exemplary extract was tested for stability under an elevated thermal stress in comparison to pure phyllodulcin. A solution of 100 mg/l of phyllodulcin and 1.38% of the exemplary ethanolic extract (corresponds to 100 mg of phyllodulcin) in an aqueous phosphate buffer, adjusted to pH 9, was tested immediately after preparation and then at regular weekly intervals for its phyllodulcin content. In this respect, an aliquot of the respective test solution was separated in an HPLC installation (RP phase) and quantified by UV detection compared to a calibration with pure phyllodulcin. The samples were stored at 40° C. in closed glass vessels to prevent evaporation. The phyllodulcin contents of the test solutions are plotted against time in FIG. 1.

Row | SMILES | sucrose equivalence alone in water (panelists) | Decomposition of phyllodulcin over time (FIG. 1) [1]
1 | COc1ccc(CCC(=O)c2c(O)cc(O[C@@H]3O[C@H](CO)[C@@H](O)[C@H](O)[C@H]3O[C@@H]3O[C@@H](C)[C@H](O)[C@@H](O)[C@H]3O)cc2O)cc1O [neohesperidin dihydrochalcone] | approximately 0.5% | –
2 | COc1ccc([C@H]2Cc3cccc(O)c3C(=O)O2)cc1O [phyllodulcin] | – | decomposed more rapidly
